Laboratory results from ChEMBL document CHEMBL5532653, “Dual inhibitors of HDAC and other epigenetic regulators: A novel strategy for cancer treatment” (Eur J Med Chem, 2024).
Blank lines part the entries; values can stand above or below the compound they belong to.

Tests used:
U-937 [1] = test: Antiproliferative activity against human U-937 cells assessed as reduction in cell growth incubated for 72 hrs by MTT assay; assay type: functional, cell-based; conditions: U-937, 72 h
[2] = molecular target: T1, Protein deacetylase HDAC6 (Homo sapiens, UniProt Q9UBN7); test: Inhibition of HDAC6 (unknown origin) using expressed in Sf9 cells using Boc-Lys(acetyI)-AMC as substrate preincubated for 1 hr followed by substrate addition and measured after 30 mins by fluorescence based analysis
T1 sequence (Q9UBN7 whole entry): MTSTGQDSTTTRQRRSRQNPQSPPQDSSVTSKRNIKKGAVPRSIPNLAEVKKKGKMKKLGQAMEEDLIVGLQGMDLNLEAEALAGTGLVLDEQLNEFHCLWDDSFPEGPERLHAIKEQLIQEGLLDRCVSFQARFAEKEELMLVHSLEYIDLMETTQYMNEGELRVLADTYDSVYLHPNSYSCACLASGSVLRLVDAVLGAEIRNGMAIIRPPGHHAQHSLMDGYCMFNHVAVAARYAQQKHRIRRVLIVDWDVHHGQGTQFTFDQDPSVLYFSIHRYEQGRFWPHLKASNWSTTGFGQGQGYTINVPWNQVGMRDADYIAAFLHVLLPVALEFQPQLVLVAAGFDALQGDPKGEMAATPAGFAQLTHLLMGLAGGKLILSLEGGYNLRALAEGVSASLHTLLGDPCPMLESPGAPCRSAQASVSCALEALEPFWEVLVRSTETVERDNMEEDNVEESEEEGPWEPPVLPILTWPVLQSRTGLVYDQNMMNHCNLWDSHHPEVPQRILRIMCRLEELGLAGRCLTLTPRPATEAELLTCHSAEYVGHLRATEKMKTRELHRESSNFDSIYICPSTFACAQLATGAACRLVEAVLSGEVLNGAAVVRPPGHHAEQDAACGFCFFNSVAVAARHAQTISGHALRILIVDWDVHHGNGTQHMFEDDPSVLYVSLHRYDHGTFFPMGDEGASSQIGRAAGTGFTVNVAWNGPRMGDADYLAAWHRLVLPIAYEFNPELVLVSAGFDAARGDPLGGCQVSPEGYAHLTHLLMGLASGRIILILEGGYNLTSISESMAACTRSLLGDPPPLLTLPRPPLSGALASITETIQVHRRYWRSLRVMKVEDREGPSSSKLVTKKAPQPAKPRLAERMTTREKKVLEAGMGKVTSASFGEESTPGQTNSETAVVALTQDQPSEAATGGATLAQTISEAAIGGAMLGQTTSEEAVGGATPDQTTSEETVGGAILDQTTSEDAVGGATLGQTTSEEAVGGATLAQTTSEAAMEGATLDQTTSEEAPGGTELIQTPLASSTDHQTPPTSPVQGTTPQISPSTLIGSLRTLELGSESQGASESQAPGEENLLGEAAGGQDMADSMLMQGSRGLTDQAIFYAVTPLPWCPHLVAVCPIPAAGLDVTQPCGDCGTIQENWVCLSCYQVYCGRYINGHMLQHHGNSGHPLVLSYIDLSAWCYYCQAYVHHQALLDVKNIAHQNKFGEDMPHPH

Histone deacetylase 1 [3] = molecular target: T2, Histone deacetylase 1 (Homo sapiens, UniProt Q13547); test: Inhibition of HDAC1 (unknown origin) using Boc-Lys(Ac)-AMC or Boc-Lys(Tfa)-AMC as substrate incubated for 1 hr by fluorescence based analysis
[4] = molecular target: T3, DNA (cytosine-5)-methyltransferase 1 (Homo sapiens, UniProt P26358); test: Inhibition of DNMT1 (unknown origin) using SAM as substrate at 1 uM by fluorescence assay relative to control
MEF = test: Antiproliferative activity against mouse MEF cells assessed as cell growth inhibition measured after 48 hrs by MTT assay; assay type: functional, cell-based
NCI-H460 = test: Antiproliferative activity against human NCI-H460 cells assessed as reduction in cell growth measured after 72 hrs by MTT assay; assay type: functional, cell-based; conditions: NCI-H460, 72 h
[5] = Cytotoxicity against human CLL cells assessed as reduction in cell viability at 5 uM relative to control; assay type: toxicity, cell-based
Histone deacetylase 2 [6] = molecular target: T4, Histone deacetylase 2 (Homo sapiens, UniProt Q92769); test: Inhibition of HDAC2 (unknown origin) by fluorescence based analysis
Histone deacetylase 3 = Histone deacetylase 3 (Homo sapiens, UniProt O15379); test: Inhibition of HDAC3 (unknown origin) using biotinylated histone H3 KAc peptide (1 to 21 residues) as substrate by HTRF assay
[7] = molecular target: T5, Bromodomain-containing protein 2 (Homo sapiens, UniProt P25440); test: Inhibition of recombinant BRD2 BD1 (unknown origin) incubated for 120 mins by TR-FRET assay
[8] = molecular target: T6, Bromodomain-containing protein 3 (Homo sapiens, UniProt Q15059); test: Inhibition of BRD3 BD2 (unknown origin) incubated for 180 min by TR-FRET assay
Histone deacetylase 8 = Histone deacetylase 8 (Homo sapiens, UniProt Q9BY41); test: Inhibition of HDAC8 (unknown origin) using Fluoro-Substrate Peptide as substrate by fluorescence assay
[9] = molecular target: T1, Protein deacetylase HDAC6; test: Inhibition of HDAC6 (unknown origin) by fluorescence based assay
[10] = molecular target: T5, Bromodomain-containing protein 2; test: Inhibition of BRD2 BD2 (unknown origin) incubated for 180 min by TR-FRET assay
[11] = molecular target: T6, Bromodomain-containing protein 3; test: Inhibition of recombinant BRD3 BD1 (unknown origin) incubated for 120 mins by TR-FRET assay
[12] = molecular target: Bromodomain testis-specific protein (Homo sapiens, UniProt Q58F21); test: Inhibition of BRDT BD2 (unknown origin) by TR-FRET assay
U-937 [13] = test: Antiproliferative activity against human U-937 cells assessed as inhibition of cell growth at 3 uM measured after 72 hrs by CellTiter-Glo luminescent cell viability assay relative to control; assay type: functional
[14] = Cytotoxicity against human HEK293T cells assessed as cell growth inhibition by MTT assay; assay type: toxicity, cell-based, HEK-293T
A549 [15] = test: Antiproliferative activity against human A549 cells assessed as reduction in cell viability measured after 48 hrs by MTT assay; assay type: functional, cell-based; conditions: A549, 48 h
K562 = test: Antiproliferative activity against human K562 cells assessed as reduction in cell viability by MTT assay; assay type: functional, cell-based
MCF7 [16] = test: Antiproliferative activity against human MCF7 cells assessed as reduction in cell growth incubated for 72 hrs by MTT assay; assay type: functional, cell-based; conditions: MCF7, 72 h
HeLa = test: Antiproliferative activity against human HeLa cells assessed as reduction in cell viability by MTT assay; assay type: functional, cell-based
Histone deacetylase 2 [17] = molecular target: T4, Histone deacetylase 2; test: Inhibition of human recombinant HDAC2 in HeLa cells using Boc-Lys(Ac)-AMC or Boc-Lys(Tfa)-AMC as fluorogenic substrate preincubated for 10 mins followed by substrate addition and measured after 1 hr by fluorescence based analysis; assay type: cell-based
Histone deacetylase = test: Inhibition of human recombinant HDAC in HeLa cells using Boc-Lys(Ac)-AMC or Boc-Lys(Tfa)-AMC as fluorogenic substrate preincubated for 10 mins followed by substrate addition and measured after 1 hr by fluorescence based analysis; assay type: cell-based
[18] = molecular target: T1, Protein deacetylase HDAC6; test: Inhibition of human recombinant HDAC6 in HeLa cells using Boc-Lys(Ac)-AMC or Boc-Lys(Tfa)-AMC as fluorogenic substrate preincubated for 10 mins followed by substrate addition and measured after 1 hr by fluorescence based analysis; assay type: cell-based
Histone deacetylase 1 [19] = molecular target: T2, Histone deacetylase 1; test: Inhibition of HDAC1 (unknown origin) using ArgHisLysLys(Ac) as substrate by fluorescence based analysis
DNMT3A2/3L complex = DNMT3A2/3L complex (Homo sapiens, UniProt Q9Y6K1); test: Inhibition of DNMT3A/DNMT3L (unknown origin); assay type: protein-complex assay
DNMT3B-DNMT3L complex = DNMT3B-DNMT3L complex (Homo sapiens, UniProt Q9UBC3); test: Inhibition of DNMT3B/3L (unknown origin); assay type: protein-complex assay
A549 [20] = test: Antiproliferative activity against human A549 cells assessed as reduction in cell growth by MTT assay; assay type: functional, cell-based
MDA-MB-231 = test: Antiproliferative activity against human MDA-MB-231 cells assessed as reduction in cell growth by MTT assay; assay type: functional, cell-based
[21] = molecular target: T1, Protein deacetylase HDAC6; test: Inhibition of HDAC6 (unknown origin) using Ac-peptide as substrate preincubated for 15 mins followed by substrate addition and measured after 1 hr by HTRF analysis
MCF7 [22] = test: Antiproliferative activity against human MCF7 cells assessed as reduction in cell growth by MTT assay; assay type: functional, cell-based
[23] = molecular target: T3, DNA (cytosine-5)-methyltransferase 1; test: Inhibition of DNMT1 (unknown origin)
D283 Med = test: Antiproliferative activity against human D283 Med cells assessed as inhibition of cell growth measured after 72 hrs by CellTiter-Glo assay; assay type: functional, cell-based
[24] = Antiproliferative activity against human WM983B cells assessed as reduction in cell growth incubated for 72 hrs by MTT assay; assay type: functional, cell-based
[25] = Antiproliferative activity against human MET-1 cells assessed as reduction in cell viability incubated for 72 hrs by MTT assay; assay type: functional, cell-based; conditions: MET-1, 72 h
SK-MEL-5 = test: Antiproliferative activity against human SK-MEL-5 cells assessed as reduction in cell viability incubated for 72 hrs by MTT assay; assay type: functional, cell-based; conditions: SK-MEL-5, 72 h
[26] = Antiproliferative activity against human SCCIC1 cells assessed as cell growth inhibition measured after 72 hrs; assay type: functional, cell-based; conditions: SCCIC1, 72 h
[27] = Inhibition of HDAC1 ([…] residues) (unknown origin) FLAG-tagged CoREST1 (unknown origin) transfected in HEK293F cells using fluorogenic p53 (RHKK(Ac)AMC) as substrate preincubated for 30 mins followed by substrate addition and measured after 15 mins by fluorescence based analysis; parameters: species or system Homo sapiens

T5 sequence (P25440 whole entry): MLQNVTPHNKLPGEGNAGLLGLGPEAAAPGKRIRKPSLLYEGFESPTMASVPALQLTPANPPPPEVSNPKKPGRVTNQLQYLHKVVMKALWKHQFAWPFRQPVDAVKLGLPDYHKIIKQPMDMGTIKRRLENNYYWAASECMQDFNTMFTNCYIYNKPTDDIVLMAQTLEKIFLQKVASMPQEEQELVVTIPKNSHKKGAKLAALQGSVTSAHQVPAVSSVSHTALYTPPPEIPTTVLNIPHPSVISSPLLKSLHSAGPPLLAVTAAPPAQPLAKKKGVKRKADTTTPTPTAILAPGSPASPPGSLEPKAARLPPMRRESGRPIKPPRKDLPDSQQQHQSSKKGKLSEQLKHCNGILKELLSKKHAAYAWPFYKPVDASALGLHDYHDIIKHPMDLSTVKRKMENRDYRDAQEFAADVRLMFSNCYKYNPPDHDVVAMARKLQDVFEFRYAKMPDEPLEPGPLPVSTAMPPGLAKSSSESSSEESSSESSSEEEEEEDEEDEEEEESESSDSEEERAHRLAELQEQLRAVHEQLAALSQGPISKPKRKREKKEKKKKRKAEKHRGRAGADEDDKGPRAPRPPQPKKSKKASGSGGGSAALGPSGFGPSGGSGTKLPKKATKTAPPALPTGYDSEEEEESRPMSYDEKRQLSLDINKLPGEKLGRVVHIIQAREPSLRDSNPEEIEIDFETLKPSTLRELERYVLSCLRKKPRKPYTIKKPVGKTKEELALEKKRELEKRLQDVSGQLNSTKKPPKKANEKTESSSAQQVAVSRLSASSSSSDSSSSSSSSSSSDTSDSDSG
T2 sequence (Q13547 whole entry): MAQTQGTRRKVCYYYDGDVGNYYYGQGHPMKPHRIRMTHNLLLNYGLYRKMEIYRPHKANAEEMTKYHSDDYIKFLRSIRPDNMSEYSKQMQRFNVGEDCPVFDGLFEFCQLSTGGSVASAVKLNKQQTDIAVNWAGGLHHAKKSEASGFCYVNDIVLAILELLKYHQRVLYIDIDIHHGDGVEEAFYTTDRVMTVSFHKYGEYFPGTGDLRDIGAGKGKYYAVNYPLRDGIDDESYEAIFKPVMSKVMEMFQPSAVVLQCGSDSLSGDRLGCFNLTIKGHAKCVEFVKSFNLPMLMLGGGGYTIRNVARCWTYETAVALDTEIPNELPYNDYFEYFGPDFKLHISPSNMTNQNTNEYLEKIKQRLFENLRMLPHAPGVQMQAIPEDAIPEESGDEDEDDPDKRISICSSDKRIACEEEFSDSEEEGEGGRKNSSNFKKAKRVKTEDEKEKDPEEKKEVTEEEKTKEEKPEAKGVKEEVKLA
T4 sequence (Q92769 whole entry, the tested form may be a part): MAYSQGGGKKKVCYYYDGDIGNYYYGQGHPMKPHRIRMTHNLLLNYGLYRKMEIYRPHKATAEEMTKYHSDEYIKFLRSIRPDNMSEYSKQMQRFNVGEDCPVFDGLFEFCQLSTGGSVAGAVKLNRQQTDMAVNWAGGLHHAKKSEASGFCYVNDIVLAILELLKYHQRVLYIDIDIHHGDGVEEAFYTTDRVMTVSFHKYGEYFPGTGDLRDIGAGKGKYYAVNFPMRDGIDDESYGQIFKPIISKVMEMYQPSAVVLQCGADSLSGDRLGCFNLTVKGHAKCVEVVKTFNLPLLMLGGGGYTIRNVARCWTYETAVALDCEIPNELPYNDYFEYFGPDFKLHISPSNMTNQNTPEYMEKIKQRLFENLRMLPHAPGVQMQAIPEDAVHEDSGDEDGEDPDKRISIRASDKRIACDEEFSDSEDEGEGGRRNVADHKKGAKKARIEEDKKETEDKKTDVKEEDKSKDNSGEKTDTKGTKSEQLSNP
T3 sequence (P26358 whole entry): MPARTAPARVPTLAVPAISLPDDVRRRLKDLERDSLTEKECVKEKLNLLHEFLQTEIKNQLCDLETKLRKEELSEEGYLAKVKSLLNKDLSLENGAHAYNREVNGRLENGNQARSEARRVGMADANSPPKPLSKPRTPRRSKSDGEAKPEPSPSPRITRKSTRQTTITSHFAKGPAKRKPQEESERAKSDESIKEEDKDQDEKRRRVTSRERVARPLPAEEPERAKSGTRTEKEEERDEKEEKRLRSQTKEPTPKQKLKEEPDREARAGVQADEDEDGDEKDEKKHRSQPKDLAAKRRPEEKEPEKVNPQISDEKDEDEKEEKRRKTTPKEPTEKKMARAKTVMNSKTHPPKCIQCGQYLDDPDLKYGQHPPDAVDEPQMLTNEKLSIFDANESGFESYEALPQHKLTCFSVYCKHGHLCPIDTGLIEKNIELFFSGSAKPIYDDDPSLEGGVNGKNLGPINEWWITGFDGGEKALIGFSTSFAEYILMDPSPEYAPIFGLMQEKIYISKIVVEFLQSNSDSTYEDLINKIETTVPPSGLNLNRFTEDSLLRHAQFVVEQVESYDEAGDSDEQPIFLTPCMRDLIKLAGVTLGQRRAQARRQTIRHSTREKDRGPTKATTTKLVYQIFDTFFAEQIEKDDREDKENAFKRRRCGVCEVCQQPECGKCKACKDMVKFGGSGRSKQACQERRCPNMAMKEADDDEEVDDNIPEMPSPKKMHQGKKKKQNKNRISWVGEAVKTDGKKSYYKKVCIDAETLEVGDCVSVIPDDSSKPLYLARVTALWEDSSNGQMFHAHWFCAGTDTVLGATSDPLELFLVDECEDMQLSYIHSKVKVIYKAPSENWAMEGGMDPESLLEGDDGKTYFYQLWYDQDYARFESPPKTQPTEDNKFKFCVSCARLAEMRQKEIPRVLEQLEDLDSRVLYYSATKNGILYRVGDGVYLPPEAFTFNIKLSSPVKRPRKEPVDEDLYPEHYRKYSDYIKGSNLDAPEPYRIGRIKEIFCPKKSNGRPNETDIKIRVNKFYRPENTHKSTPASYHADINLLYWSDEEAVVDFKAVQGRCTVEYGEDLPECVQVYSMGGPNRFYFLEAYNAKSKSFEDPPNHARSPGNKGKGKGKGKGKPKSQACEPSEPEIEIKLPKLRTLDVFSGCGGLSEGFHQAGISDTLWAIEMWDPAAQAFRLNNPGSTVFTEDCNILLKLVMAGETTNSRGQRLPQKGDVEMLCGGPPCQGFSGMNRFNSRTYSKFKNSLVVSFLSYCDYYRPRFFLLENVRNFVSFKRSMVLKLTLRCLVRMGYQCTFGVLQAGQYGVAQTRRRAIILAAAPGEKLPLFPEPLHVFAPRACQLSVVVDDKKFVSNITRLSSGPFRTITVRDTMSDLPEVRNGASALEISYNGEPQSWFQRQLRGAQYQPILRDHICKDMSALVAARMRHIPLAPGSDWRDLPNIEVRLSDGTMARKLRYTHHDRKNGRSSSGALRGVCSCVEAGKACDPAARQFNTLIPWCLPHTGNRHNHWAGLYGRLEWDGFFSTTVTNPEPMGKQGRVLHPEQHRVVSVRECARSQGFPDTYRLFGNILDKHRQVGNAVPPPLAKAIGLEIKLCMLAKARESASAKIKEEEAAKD
T6 sequence (Q15059 whole entry): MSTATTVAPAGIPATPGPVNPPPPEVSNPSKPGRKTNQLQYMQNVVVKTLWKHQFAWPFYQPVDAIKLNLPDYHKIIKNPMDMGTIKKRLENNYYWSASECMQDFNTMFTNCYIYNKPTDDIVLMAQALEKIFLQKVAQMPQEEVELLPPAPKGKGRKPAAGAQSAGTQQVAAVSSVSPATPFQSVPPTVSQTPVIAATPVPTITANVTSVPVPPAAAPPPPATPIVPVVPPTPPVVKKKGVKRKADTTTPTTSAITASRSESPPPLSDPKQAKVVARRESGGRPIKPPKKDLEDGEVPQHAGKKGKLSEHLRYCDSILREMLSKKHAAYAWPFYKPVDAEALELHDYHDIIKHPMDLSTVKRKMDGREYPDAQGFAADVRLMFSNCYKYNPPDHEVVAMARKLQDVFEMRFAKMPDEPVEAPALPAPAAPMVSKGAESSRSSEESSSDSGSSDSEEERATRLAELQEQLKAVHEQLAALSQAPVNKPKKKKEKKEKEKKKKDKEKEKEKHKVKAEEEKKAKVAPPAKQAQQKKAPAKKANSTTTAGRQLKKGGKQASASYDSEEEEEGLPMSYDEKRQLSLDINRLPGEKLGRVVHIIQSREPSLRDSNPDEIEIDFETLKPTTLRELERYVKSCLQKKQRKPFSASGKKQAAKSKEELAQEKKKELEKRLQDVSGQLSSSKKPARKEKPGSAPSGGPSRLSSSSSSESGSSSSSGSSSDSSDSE
Sequence of Histone deacetylase 3 (O15379 whole entry, the tested form may be a part): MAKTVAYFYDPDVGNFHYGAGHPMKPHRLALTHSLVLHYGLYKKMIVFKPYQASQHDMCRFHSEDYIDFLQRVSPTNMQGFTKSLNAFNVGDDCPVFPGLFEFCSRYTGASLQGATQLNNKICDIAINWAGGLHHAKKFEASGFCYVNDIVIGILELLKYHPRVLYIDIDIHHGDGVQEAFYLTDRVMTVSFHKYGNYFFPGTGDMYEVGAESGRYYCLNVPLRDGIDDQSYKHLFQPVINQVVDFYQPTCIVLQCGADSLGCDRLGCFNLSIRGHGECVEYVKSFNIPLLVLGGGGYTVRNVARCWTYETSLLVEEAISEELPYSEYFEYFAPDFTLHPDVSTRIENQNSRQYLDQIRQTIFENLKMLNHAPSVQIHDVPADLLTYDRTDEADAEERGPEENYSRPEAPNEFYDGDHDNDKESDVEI
Sequence of Histone deacetylase 8 (Q9BY41 whole entry): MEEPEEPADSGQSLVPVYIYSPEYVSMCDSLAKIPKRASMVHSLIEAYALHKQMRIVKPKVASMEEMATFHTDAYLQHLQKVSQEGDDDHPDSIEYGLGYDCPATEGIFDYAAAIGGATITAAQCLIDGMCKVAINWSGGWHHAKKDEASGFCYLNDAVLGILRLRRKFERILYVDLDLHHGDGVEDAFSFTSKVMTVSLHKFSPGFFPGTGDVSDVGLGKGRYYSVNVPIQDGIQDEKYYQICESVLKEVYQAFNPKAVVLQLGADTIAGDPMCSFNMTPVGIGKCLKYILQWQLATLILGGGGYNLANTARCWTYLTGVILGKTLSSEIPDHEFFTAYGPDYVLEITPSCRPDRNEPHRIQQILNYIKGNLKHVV

Compound: Cn1c(CCCCCCC(=O)NO)nc2cc(N(CCCl)CCCl)ccc21 [TINOSTAMUSTINE]
IC50 (MEF): 5700 nM | IC50 (NCI-H460): 2200 nM | Activity [5]: ~ 100 nM

Compound: Cc1sc2c(c1C)C(c1ccc(Cl)cc1)=N[C@@H](CC(=O)Nc1ccc(C(=O)NO)cc1)c1nnc(C)n1-2
IC50 (Histone deacetylase 2 [6]): 52 nM | IC50 (Histone deacetylase 3): 39 nM | IC50 [7]: 316 nM | IC50 [8]: 38 nM | IC50 (Histone deacetylase 8): 192 nM | IC50 [9]: 34 nM | IC50 [10]: 78 nM | IC50 [11]: 133 nM | IC50 [12]: 32200 nM

Compound: Cc1sc2c(c1C)C(c1ccc(Cl)cc1)=N[C@@H](CC(=O)NCCCC(=O)Nc1ccccc1N)c1nnc(C)n1-2
inhibition at 3 µM (U-937 [13]): 84%

Compound: Cn1cc(-c2ccc(S(=O)(=O)n3ccc(/C=C/C(=O)Nc4ccccc4N)c3)cc2)cn1 [DOMATINOSTAT]
IC50 (D283 Med): 150 nM

Now from value to compound, other results behind:

IC50 (U-937 [1]): 1300 nM | IC50 [2]: 4.8 nM | IC50 (Histone deacetylase 1 [3]): 2.4 nM | inhibition [4]: 44.5%
Compound: Nc1ncnc2c1ncn2Cc1ccc(-c2cn(CCCCCCC(=O)NO)nn2)cc1

IC50 (A549 [15]): 36200 nM | IC50 (K562): 5740 nM | IC50 (MCF7 [16]): 37400 nM | IC50 (HeLa): 15300 nM
Compound: COc1ccc2c(NC3CCN(Cc4ccccc4)CC3)nc(NCCNC(=O)CCCCC(=O)NO)nc2c1
IC50 [14]: 20000 nM

IC50 (Histone deacetylase 2 [17]): 29 nM | IC50 (Histone deacetylase): 291 nM | IC50 [18]: > 1000 nM
Compound: Cc1noc(C)c1-c1ccc2c(c1)c(Cc1ccc(F)cc1)cn2CCCCCCC(=O)NO

IC50 (Histone deacetylase 1 [19]): 4160 nM | IC50 (DNMT3A2/3L complex): 930 nM | IC50 (DNMT3B-DNMT3L complex): 1320 nM | IC50 (A549 [20]): 3920 nM | IC50 (MDA-MB-231): 4650 nM | IC50 [21]: > 100000 nM | IC50 (MCF7 [22]): 1880 nM | IC50 [23]: 2020 nM
Compound: O=C(NO)C1CCN(C[C@@H](O)COC(Cn2c3ccccc3c3ccccc32)Cn2c3ccccc3c3ccccc32)CC1

IC50 (SK-MEL-5): 130 nM | IC50 [27]: 206 nM
Compound: Nc1ccccc1NC(=O)c1ccc(CCCC(=O)Nc2ccc(C3CC3N)cc2)cc1 (centres undefined)
IC50 [24]: 200 nM | IC50 [25]: 6 nM | IC50 [26]: 41 nM
